From PubChem BioAssay AID1845200 (Molecular Pharmacology Branch, DTP, NCI, 2023)
Activity calls are given as the source filed them. The calls were made as follows: active = viability on the fitted dose curve at most 10% of control; inactive = the rest.

Test system: ASPS-1 complex tumor spheroids, viability
Assay: Anticancer human tumor ASPS-1 cell line growth inhibition;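 also: spheroids exposed to agents for 7 days after 3 days of growth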;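 as to viability, T/C: 100% = DMSO vehicle treated spheroids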
Settings: for IC50: curve of first compound; for viability, T/C: stronger effect = lower value
Text: Multicellular complex tumor spheroid response to DNA repair inhibitors in combination with DNA-damaging drugs
This study explores the anticancer activities of DNA-damaging drugs and inhibitors of DNA damage repair, both as single agents and in combinations. Complex tumor spheroids comprised of malignant cells, endothelial cells and mesenchymal stem cells served as an in vitro model for human solid tumors. This model system incorporates physiologically relevant features and patient-derived or established malignant cell lines with clinically relevant genetic alterations from many tumor types. Twenty-six patient-derived or established malignant cell lines were evaluated representing sarcoma, melanoma, small cell lung cancer (SCLC), non-small cell lung cancer (NSCLC), as well as bladder, ovarian and pancreatic cancers. The concentration ranges selected for each drug and investigational agent were based upon clinically achievable concentrations if the clinical Cmax of the agent was known.
Compounds. The drugs and compounds olaparib (NSC753686), talazoparib (NSC767125), berzosertib (NSC777718), elimusertib (NSC800525), nedisertib (NSC802822), VX-984 (NSC792969), AZD-1390 (NSC803789), temozolomide (NSC362856), topotecan (NSC609699), trabectedin (NSC813783), staurosporine (NSC755774), and gemcitabine (NSC613327) were obtained from the National Cancer Institute (NCI) Developmental Therapeutics Program Chemical Repository. The FDA-approved anticancer drug set is available from the Developmental Therapeutics Program at https://dtp.cancer.gov/organization/dscb/obtaining/available_plates.htm. […] The stock solutions were prepared in dimethyl sulfoxide (DMSO, Sigma-Aldrich, St. Louis, MO, cat. D2650) at 400-fold the tested concentration and stored at -70 degrees C. Prior to their use, the stock solutions were diluted in fresh medium and the final DMSO concentration in the assay was 0.25% (v/v). All drugs and investigational agents were tested over a range starting from a high concentration at or near the clinical Cmax and decreasing in half-log increments. If the clinical Cmax for an agent had not been determined, the highest concentration tested was 10 microM.
Cell Lines. The patient-derived cancer cell (PDC) lines: 156681-154-R-J1-PDC, 283228-195-R-J1-PDC, 287954-098-R-J1-PDC, 292921-168-R-J2-PDC, 349418-098-R-PDC, 425362-245-T-J1-PDC, 556581-035-R-J1-PDC, and BL0293-F563-PDC were received from the NCI Patient-Derived Models Repository (PDMR, https://pdmr.cancer.gov). The established cell lines HS-SY-2 (RRID:CVCL_8719), MPNST, and SYO-1 (RRID:CVCL_7146) were obtained from the Sloan Kettering Institute. The alveolar soft parts sarcoma cell line ASPS-1 (RRID:CVCL_S738) was established at the NCI and grown from internal seed stocks. The following established cell lines were purchased from the American Type Culture Collection (ATCC, Manassas, VA): G-401 (ATCC, cat. CRL-1441, RRID:CVCL_0270), SW982 (ATCC, cat. HTB-93, RRID:CVCL_1734), VA-ES-BJ (ATCC, cat. CRL-2138, RRID:CVCL_1785), NCI-H719 (ATCC, cat. CRL-5837, RRID:CVCL_1582), NCI-H196 (ATCC, cat. CRL-5823, RRID:CVCL_1509), NCI-H841 (ATCC, cat. CRL-5845, RRID:CVCL_1595), NCI-H1618 (ATCC, cat. CRL-5879, RRID:CVCL_1480), NCI-H1876 (ATCC, cat. CRL-5902, RRID:CVCL_1503), DMS 114 (ATCC, cat. CRL-2066; RRID:CVCL_1174), NCI-H211 (ATCC, cat. CRL-5824; RRID:CVCL_1529), and SW 1271 (ATCC, cat. CRL-2177, RRID:CVCL_1716). The small cell lung cancer cell line COR-L88 was purchased from Sigma-Aldrich (cat. 92031917-1VL, RRID:CVCL_1141). The non-small cell lung cancer cell lines NCI-H226 (RRID:CVCL_1544) and NCI-H322M (RRID:CVCL_1557) were established at the NCI and grown from internal seed stocks. Pooled donor human umbilical vein endothelial cells (HUVEC, Lonza, cat. CC-2519) and human mesenchymal stem cells (hMSC, Lonza, cat. PT-2501) were purchased from Lonza (Walkersville, MD).
Cell Culture. All cells were maintained in an incubator at 37 degrees C and 5% CO2 with 95% humidity. […]

[1] = second compound 0.003 µM, first compound 0.0316 µM
[2] = second compound 0.003 µM, first compound 0.1 µM
[3] = second compound 0.003 µM, first compound 0.316 µM
[4] = second compound 0.003 µM, first compound 1 µM
[5] = second compound 0.003 µM, first compound 3.16 µM
[6] = second compound 0.003 µM, first compound 10 µM
[7] = second compound 0.00949 µM, first compound 0.0316 µM
[8] = second compound 0.00949 µM, first compound 0.1 µM
[9] = second compound 0.00949 µM, first compound 0.316 µM
[10] = second compound 0.00949 µM, first compound 1 µM
[11] = second compound 0.00949 µM, first compound 3.16 µM
[12] = second compound 0.00949 µM, first compound 10 µM
[13] = second compound 0.03 µM, first compound 0.0316 µM
[14] = second compound 0.03 µM, first compound 0.1 µM
[15] = second compound 0.03 µM, first compound 0.316 µM
[16] = second compound 0.03 µM, first compound 1 µM
[17] = second compound 0.03 µM, first compound 3.16 µM
[18] = second compound 0.03 µM, first compound 10 µM
[19] = second compound 0.0949 µM, first compound 0.0316 µM
[20] = second compound 0.0949 µM, first compound 0.1 µM
[21] = second compound 0.0949 µM, first compound 0.316 µM
[22] = second compound 0.0949 µM, first compound 1 µM
[23] = second compound 0.0949 µM, first compound 3.16 µM
[24] = second compound 0.0949 µM, first compound 10 µM
[25] = second compound 0.3 µM, first compound 0.0316 µM
[26] = second compound 0.3 µM, first compound 0.1 µM
[27] = second compound 0.3 µM, first compound 0.316 µM
[28] = second compound 0.3 µM, first compound 1 µM
[29] = second compound 0.3 µM, first compound 3.16 µM
[30] = second compound 0.3 µM, first compound 10 µM

## Cc1cc(C)c(CNC(=O)c2cc(-c3ccc(CN4CCOCC4)cc3)cc3c2cnn3C2CCCC2)c(=O)[nH]1 + CC[C@@]1(O)C(=O)OCc2c1cc1n(c2=O)Cc2cc3c(CN(C)C)c(O)ccc3nc2-1
Second compound 0.003 µM
  IC50: > 10 µM
Second compound 0.00949 µM
  IC50: > 10 µM
Second compound 0.03 µM
  IC50: > 10 µM
Second compound 0.0949 µM
  IC50: 0.777 µM
Second compound 0.3 µM
  IC50: < 0.0316 µM
[1]
  viability, T/C: 100%
[2]
  viability, T/C: 106%
[3]
  viability, T/C: 94.2%
[4]
  viability, T/C: 93.7%
[5]
  viability, T/C: 85.2%
[6]
  viability, T/C: 81.2%
[7]
  viability, T/C: 107%
[8]
  viability, T/C: 114%
[9]
  viability, T/C: 107%
[10]
  viability, T/C: 95.2%
[11]
  viability, T/C: 87.2%
[12]
  viability, T/C: 77.8%
[13]
  viability, T/C: 95.8%
[14]
  viability, T/C: 98.7%
[15]
  viability, T/C: 89.9%
[16]
  viability, T/C: 79.9%
[17]
  viability, T/C: 66%
[18]
  viability, T/C: 74%
[19]
  viability, T/C: 59%
[20]
  viability, T/C: 55.3%
[21]
  viability, T/C: 52.3%
[22]
  viability, T/C: 46.2%
[23]
  viability, T/C: 46.5%
[24]
  viability, T/C: 52.8%
[25]
  viability, T/C: 49.5%
[26]
  viability, T/C: 47%
[27]
  viability, T/C: 44.4%
[28]
  viability, T/C: 45.6%
[29]
  viability, T/C: 46.4%
[30]
  viability, T/C: 56.9%

## Cc1sc2c(c1C)C(c1ccc(Cl)cc1)=NC(CC(=O)Nc1ccc(O)cc1)c1nnc(C)n1-2 (stereo not given) + CC[C@@]1(O)C(=O)OCc2c1cc1n(c2=O)Cc2cc3c(CN(C)C)c(O)ccc3nc2-1
Second compound 0.003 µM
  IC50: > 3 µM
Second compound 0.00949 µM
  IC50: > 3 µM
Second compound 0.03 µM
  IC50: > 3 µM
Second compound 0.0949 µM
  IC50: > 3 µM
Second compound 0.3 µM
  IC50: 0.55 µM
Second compound 0.003 µM, first compound 0.00949 µM
  viability, T/C: 105%
Second compound 0.003 µM, first compound 0.03 µM
  viability, T/C: 111%
Second compound 0.003 µM, first compound 0.0949 µM
  viability, T/C: 106%
Second compound 0.003 µM, first compound 0.3 µM
  viability, T/C: 107%
Second compound 0.003 µM, first compound 0.949 µM
  viability, T/C: 94.4%
Second compound 0.003 µM, first compound 3 µM
  viability, T/C: 84.2%
Second compound 0.00949 µM, first compound 0.00949 µM
  viability, T/C: 114%
Second compound 0.00949 µM, first compound 0.03 µM
  outcome: inactive
Second compound 0.00949 µM, first compound 0.0949 µM
  viability, T/C: 118%
Second compound 0.00949 µM, first compound 0.3 µM
  viability, T/C: 109%
Second compound 0.00949 µM, first compound 0.949 µM
  viability, T/C: 97.8%
Second compound 0.00949 µM, first compound 3 µM
  viability, T/C: 88.5%
Second compound 0.03 µM, first compound 0.00949 µM
  viability, T/C: 100%
Second compound 0.03 µM, first compound 0.03 µM
  viability, T/C: 105%
Second compound 0.03 µM, first compound 0.0949 µM
  viability, T/C: 102%
Second compound 0.03 µM, first compound 0.3 µM
  viability, T/C: 94.4%
Second compound 0.03 µM, first compound 0.949 µM
  viability, T/C: 89.6%
Second compound 0.03 µM, first compound 3 µM
  viability, T/C: 77.4%
Second compound 0.0949 µM, first compound 0.00949 µM
  viability, T/C: 64.2%
Second compound 0.0949 µM, first compound 0.03 µM
  viability, T/C: 71.7%
Second compound 0.0949 µM, first compound 0.0949 µM
  viability, T/C: 77.2%
Second compound 0.0949 µM, first compound 0.3 µM
  viability, T/C: 71.2%
Second compound 0.0949 µM, first compound 0.949 µM
  viability, T/C: 66.9%
Second compound 0.0949 µM, first compound 3 µM
  viability, T/C: 58.8%
Second compound 0.3 µM, first compound 0.00949 µM
  viability, T/C: 52.1%
Second compound 0.3 µM, first compound 0.03 µM
  viability, T/C: 55.2%
Second compound 0.3 µM, first compound 0.0949 µM
  viability, T/C: 58.7%
Second compound 0.3 µM, first compound 0.3 µM
  viability, T/C: 55.3%
Second compound 0.3 µM, first compound 0.949 µM
  viability, T/C: 44.5%
Second compound 0.3 µM, first compound 3 µM
  viability, T/C: 33.7%

## [2H]c1nc(C)nc([2H])c1-c1cc(NC[C@@H](C)c2cccc3c(C(=O)NC)ccnc23)ncn1 + CC[C@@]1(O)C(=O)OCc2c1cc1n(c2=O)Cc2cc3c(CN(C)C)c(O)ccc3nc2-1
Second compound 0.003 µM
  IC50: > 10 µM
Second compound 0.00949 µM
  IC50: > 10 µM
Second compound 0.03 µM
  IC50: > 10 µM
Second compound 0.0949 µM
  IC50: > 10 µM
Second compound 0.3 µM
  IC50: > 10 µM
[1]
  viability, T/C: 111%
[2]
  viability, T/C: 113%
[3]
  viability, T/C: 110%
[4]
  viability, T/C: 107%
[5]
  viability, T/C: 107%
[6]
  viability, T/C: 104%
[7]
  viability, T/C: 112%
[8]
  viability, T/C: 106%
[9]
  viability, T/C: 107%
[10]
  viability, T/C: 108%
[11]
  viability, T/C: 97.8%
[12]
  viability, T/C: 100%
[13]
  viability, T/C: 103%
[14]
  viability, T/C: 101%
[15]
  viability, T/C: 97.8%
[16]
  viability, T/C: 91.3%
[17]
  viability, T/C: 94.6%
[18]
  viability, T/C: 97.4%
[19]
  viability, T/C: 67.8%
[20]
  viability, T/C: 75.8%
[21]
  viability, T/C: 67.8%
[22]
  viability, T/C: 66.2%
[23]
  viability, T/C: 68%
[24]
  viability, T/C: 68.4%
[25]
  viability, T/C: 80.2%
[26]
  viability, T/C: 72.8%
[27]
  viability, T/C: 77.1%
[28]
  viability, T/C: 71.4%
[29]
  viability, T/C: 74.8%
[30]
  viability, T/C: 66.6%
